Source: patent publication US11925643B2, “Toll-like receptor 4 (TLR4) inhibitors and use thereof” (MOR RESEARCH APPLICATIONS LTD., priority 2018, dated 2024)
Residues, ends and D or L forms follow the SMILES beside them.

Key:
primary cardiomyocytes = test: CK and LDH release by primary cardiomyocytes under hypoxia (MI like); assay type: cell-based, Rat
Method: Rat hearts (1-2 days old) were removed under sterile conditions and washed three times in phosphate-buffered saline (PBS) to remove excess blood cells. The hearts were minced and then gently agitated in RBD (a solution of proteolytic enzymes (Biological Institute, Ness-Ziona, Israel) prepared from fig tree extract, and diluted 1:100 in Ca^2+- and Mg^2+-free PBS) for a few cycles of 10 min each. Dulbecco's modified Eagle's medium (Biological Industries, Kibbutz Beit Haemek, Israel) containing 10% horse serum was added to supernatant suspensions containing the dissociated cells. The mixture was centrifuged at 1400 rpm for 4 min. The supernatant phase was discarded, and the cells were re-suspended. The cell suspension was diluted to 1.0×10^6 cells/ml, unless stated otherwise, and 1.5 ml of the suspension was placed in 35-mm plastic culture dishes collagen- or gelatin-coated, or on coated cover glasses. The cultures were incubated in a humidified atmosphere of 5% CO2 and 95% air at 37° C.
Using a vacuum pump, the oxygen rich air was evacuated from an incubator containing plates with cell cultures, and a 100% Argon atmosphere was let in, while maintaining a temperature of 37° C. The cell cultures were washed with PBS twice to remove glucose from the medium. Hypoxic treated cells were cultures in PBS without glucose. These cells lasted for 180 minutes.
Primary cardiomyocytes which were obtained by method described above, were treated with exemplary decoy peptides described herein. After 30 minutes of incubation, sepsis like (LPS treatment for 6 hours), or myocardial infarction (MI) like (hypoxia for 3 hours) conditions were imposed to measure the release of CK and LDH to the medium and determine the potential cardioprotective effect of the tested decoy peptides. Cytotoxicity and level of cell damage were assessed by spectrophotometric measurement of lactate dehydrogenase (LDH) and creatine kinase (CK) activities (at 30° C.). Results are presented as CK and LDH release in arbitrary units (a.u.)
Activity of LDH and CK was determined in the cell-culture medium (25 μl) transferred into 96-well plates, using commercial L-LDH/CK kits (such as those manufactured, e.g., by Sigma-Aldrich, BioVision™ or Thermo Fisher Scientific®).
Primary cardiomyocytes were treated with peptides and peptidomimetics of SEQ ID NOs:1-7 provided at concentrations ranging from 1 μM to 20 μM. Following 30 minutes of incubation, sepsis like (LPS treatment for 6 hours) or MI like (hypoxia for 3 hours) conditions were induced to determine the potential cardioprotective effect of the tested compounds. Creatine kinase (CK) and lactate dehydrogenase (LDH) activity were assayed to determine the level of cellular damage and cell protection effect. The experimental procedure is described in Materials and Methods above. Results are presented as CK and LDH release in arbitrary units (a.u.).

TLR4 = biological target: T1, TLR4 (Mus musculus, UniProt Q9QUK6); test: TLR4 protein level by Western blot in hypoxic cardiomyocytes; assay type: cell-based; conditions: 20 μM, hypoxic conditions
T1 construct: endogenous in cells; host or cells: primary cardiomyocytes under hypoxia
T1 sequence (Q9QUK6 26-835): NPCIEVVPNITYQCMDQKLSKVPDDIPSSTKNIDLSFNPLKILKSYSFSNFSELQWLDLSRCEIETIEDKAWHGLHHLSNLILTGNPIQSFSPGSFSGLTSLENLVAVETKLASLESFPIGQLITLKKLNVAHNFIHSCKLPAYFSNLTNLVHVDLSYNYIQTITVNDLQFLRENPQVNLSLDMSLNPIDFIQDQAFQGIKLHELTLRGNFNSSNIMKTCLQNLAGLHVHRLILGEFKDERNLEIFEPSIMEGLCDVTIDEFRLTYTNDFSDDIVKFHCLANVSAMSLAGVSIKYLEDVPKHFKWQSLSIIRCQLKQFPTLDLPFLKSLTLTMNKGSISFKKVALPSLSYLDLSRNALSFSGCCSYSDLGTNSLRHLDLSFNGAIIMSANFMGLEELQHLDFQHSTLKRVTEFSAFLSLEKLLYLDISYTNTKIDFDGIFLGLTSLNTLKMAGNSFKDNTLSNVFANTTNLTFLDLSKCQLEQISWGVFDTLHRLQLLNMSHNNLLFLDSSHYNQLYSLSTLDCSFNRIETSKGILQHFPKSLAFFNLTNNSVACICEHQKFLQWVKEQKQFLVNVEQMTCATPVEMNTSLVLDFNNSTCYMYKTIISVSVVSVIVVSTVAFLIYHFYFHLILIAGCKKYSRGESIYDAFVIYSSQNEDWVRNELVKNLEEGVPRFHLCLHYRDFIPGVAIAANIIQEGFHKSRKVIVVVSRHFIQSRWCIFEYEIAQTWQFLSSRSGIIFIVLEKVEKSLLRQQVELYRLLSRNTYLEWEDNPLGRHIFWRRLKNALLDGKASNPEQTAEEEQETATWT
Method: Frozen tissue/cell cultures of liver or heart were pulverized under liquid nitrogen and placed in a homogenization buffer ([…] phosphate buffer, […] sucrose, […] EDTA, […] phenylmethylsulfonyl fluoride (PMSF), and 0.1% vol/vol tergitol, pH 7.5). Myocytes from cell cultures were homogenized in lysis buffer.
Homogenates were centrifuged at 12K rpm for 10 minutes at 4° C., the supernatant was isolated, and protein levels were visualized by immunoblotting with antibodies. Briefly, proteins (60 μg/sample) were separated using SDS-PAGE gel (12%-15%) under denaturing conditions and electro-transferred (blotted) onto nitrocellulose (Bio-Rad) for 1 hour at 100 V. Membranes were blocked with 5% nonfat milk in Tris-buffered saline with 0.1% Tween® 20 (TBST) for 1 hour at room temperature. Primary antibodies were used at a 1:200-1:1000 concentration in TBST with 5% nonfat milk overnight at 4° C. Immunodetection of β-actin/GPDH was performed as an internal control. Dye 800/680 secondary antibodies were added at a concentration of 1:15000 for 1 hour at room temperature (LI-COR® Biosciences, NE, USA). Detection was carried out with LI-CORE® Odyssey® imaging system. Quantification of signals was carried out with the Odyssey® program. […]

SMILES	minimal effective concentration (cardioprotective effect, CK and LDH release) (primary cardiomyocytes) [µM]	decrease of TLR4 protein expression relative to PM6 (TLR4; positive control)	CK release (primary cardiomyocytes; 20 μM)	LDH release (primary cardiomyocytes; 20 μM)	decrease of TLR4 protein expression (TLR4) [fold]
CC[C@H](C)[C@H](NC(C)=O)C(=O)N[C@H](C(=O)N[C@@H](Cc1ccccc1)C(=O)N[C@@H](C)C(N)=O)C(C)C [SEQ ID NO:1, (2S,3S)-2-acetamido-N-((S)-1-(((S)-1-(((S)-1-amino-1-oxopropan-2-yl)amino)-1-oxo-3-phenylpropan-2-yl)amino)-3-methyl-1-oxobutan-2-yl)-3-methylpentanamide] (Ac-IVFA-NH2)	1	same extent	–	–	–
CCCCCCCCNc1nc(=O)n(Cc2ccccc2)cc1C [PM6, 1-benzyl-5-methyl-4-(octylamino)pyrimidin-2(1H)-one]	–	–	significant reduction	significant reduction	7.6
